Assay results published in US8633195B1, “Method of inhibiting apolipoprotein-E expression comprising administering a triarylmethyl amine compound” (Fresno California State University, priority 2012, dated 2014).

What was measured:
Format in all cases: cell-based
[1] = test system: apoE expression in human CCF-STTG1 astrocytoma cells; test: ApoE ELISA on conditioned medium of human CCF-STTG1 astrocytoma cells; conditions: 10 μM compound, 24 hours; for ApoE (ng/ml) Normalized for Cell Count and Vehicle Treatment: normalized to DMSO treated cells
Procedure: The triarylmethyl amine compounds, including the ones shown in TABLE 1, were tested for biological effects on mammalian cells in an ELISA, an assay well-known in the art. […] The ELISA technique involves immobilizing an apoE-specific capture antibody to a 96-well plate, addition of sample (conditioned medium from astrocytoma cells treated with the compound for 24 hours), and detection of the bound apoE using a second apoE-specific biotinylated antibody and streptavidin-HRP.
The Mabtech ELISA kit detects the presence of three apoE isoforms: apoE2, apoE3, and apoE4.
All triarylmethyl amine compounds listed in Table 1 were individually dissolved in DMSO at a stock concentration of 10 mM and individually tested. For ELISA's, 1.6×10^4 cells/96-well were grown for 1 day in RPMI, followed by a 24 hour equilibration in serum-free Opti-MEM (Life Technologies). Treatments were carried out in quadruplicate with 100 μL of fresh Opti-MEM containing 10 μM of compound or vehicle (0.1% DMSO) for 24 hours. Conditioned medium from these samples were then diluted 2-fold with incubation buffer (PBS+0.05% Tween-20+0.1% BSA) and analyzed with a human apoE HRP ELISA kit (Mabtech) according to the manufacturer's protocol. ApoE concentration in the sample was calculated based on a standard curve derived using known amounts of purified apoE supplied with the kit. The cells in the 96-well plates were used to determine the total cell number using CyQUANT reagent (Life Technologies).
The astrocytoma cells were treated for 24 hours with a 10 μM concentration of each of the individual 37 compounds listed in Table 1.

[2] = test system: apoE mRNA in HepG2 human liver cells; test: ApoE mRNA qPCR in HepG2 liver cells; conditions: 24 hours in OptiMEM, HPRT1 and β-actin as housekeeping genes
Description: (§1) Quantitative reverse transcription polymerase chain reaction (qPCR) is a laboratory technique used to amplify and quantify the steady-state levels of apoE messenger RNA (mRNA) by converting the copy DNA (cDNA). The targeted DNA molecule quantity can be determined as a relative amount when normalized to housekeeping genes. For qPCR, reverse transcription is used to quantify the amount of mRNA produced through the balance between transcription rate and degradation rates. The amount of mRNA available is the one factor which can affect the overall protein expression. Quantification of the cDNA produced during reverse transcription of the mRNA may be accomplished by detecting the fluorescent markers, such as fluorophores, that selectively hybridize with the DNA target.
(§2) The HepG2 (ATCC, HB-8065) human liver cells were treated with one of the selected triarylmethyl amine compounds for 24 hours in OptiMEM. The selected triarylmethyl amine compounds were individually dissolved in DMSO at a stock concentration of 10 mM and individually tested. Total RNA was extracted using the RNeasy Plus Mini Kit (Qiagen). Genomic DNA (gDNA) was removed by centrifugation through gDNA eliminator spin columns included with the kit. Samples of total RNA were reverse transcribed following instructions in the Superscript III first strand synthesis kit (Life Technologies). ApoE, HPRT1, and β-actin cDNA levels were quantified by TaqMan multiplex quantitative PCR using a CFX96 Real-Time PCR Detection System (BioRad). Reactions were carried out with SensiMix II Probe Master Mix (Bioline) in a 20 μl total volume containing 5-30 ng of cDNA template. Fluorescent labels and primer/probe concentrations were as follows: apoE (5′-FAM, 600 nM/300 nM), HPRT1 (5′-TEX-615, 100 nM/25 nM), and β-actin (5′-Cy5, 100 nM/25 nM). ZEN double quenched probes (Integrated DNA technologies) were used for all apoE reactions. The reactions were performed in triplicate and the results were analyzed using qbasePLUS (Biogazelle) with HPRT1 and β-actin as housekeeping genes.

[3] = test system: apoE expression in human HepG2 liver cells; test: ApoE ELISA on conditioned medium of human HepG2 liver cells; conditions: 10 μM compound, 24 hours, normalized to DMSO treated wells
Procedure: To obtain the data shown in Table 4, the human HepG2 liver cells (ATCC, HB-8065 were maintained in RPMI medium (Mediatech) supplemented with 10 mM HEPES, 1 mM sodium pyruvate, 4.5 g/L glucose, 1% penicillin/streptomycin, and 10% bovine growth serum (HyClone) at 37° C. with 5% CO2
Compound Nos. 13, 31, 33, 35 or 36—as listed in Table 1—were individually dissolved in DMSO at a stock concentration of 10 mM and individually tested. For ELISA's, 1.6×10^4 cells/96-well were grown for 1 day in RPMI, followed by a 24 hour equilibration in serum-free Opti-MEM (Life Technologies). Treatments were carried out in quadruplicate with 100 μL of fresh Opti-MEM containing 10 μM of compound or vehicle (0.1% DMSO) for 24 hours. Conditioned medium from these samples were then diluted 2-fold with incubation buffer (PBS+0.05% Tween-20+0.1% BSA) and analyzed with a human apoE HRP ELISA kit (Mabtech) according to the manufacturer's protocol.
A standard curve was used to derive sample apoE concentrations. The cells in the 96-well plates were used to determine the total cell number using CyQUANT reagent (Life Technologies). Sample apoE concentrations were adjusted for total cell number and then normalized to DMSO treated wells. Results for each set of compounds tested in parallel (n=3) were analyzed by a one-tailed t-test.
The data in Table 3 were obtained by using an apoE ELISA assay to monitor human HepG2 cell production of apoE after the HepG2 cells were treated with Compound Nos. 13, 31, 33, 35 and 36, as listed on Table 1. The HepG2 liver cells were treated for 24 hours with a 10 μM concentration of each of Compound Nos. 13, 31, 33, 35 and 36, as listed on Table 1.

[4] = test system: apoE mRNA in CCF-STTG1 human astrocytoma cells; test: ApoE mRNA qPCR in CCF-STTG1 astrocytoma cells; design: unit not given here; conditions: 24 hours in OptiMEM, HPRT1 and β-actin as housekeeping genes
Description: as §1
as §2, with “CCF-STTG1” for “HepG2”, “CRL-1718)” for “HB-8065)”, “astrocytoma” for “liver”, “μL” for “μl”

[5] = test system: apoE mRNA in H4 human neuroglioma cells; test: ApoE mRNA qPCR in H4 neuroglioma cells; design: unit not given here; conditions: 24 hours in OptiMEM, HPRT1 and β-actin as housekeeping genes
Description: as §1
The selected triarylmethyl amine compounds were individually dissolved in DMSO at a stock concentration of 10 mM and individually tested. Total RNA was extracted using the RNeasy Plus Mini Kit (Qiagen). Genomic DNA (gDNA) was removed by centrifugation through gDNA eliminator spin columns included with the kit. Samples of total RNA were reverse transcribed following instructions in the Superscript III first strand synthesis kit (Life Technologies). ApoE, HPRT1, and β-actin cDNA levels were quantified by TaqMan multiplex quantitative PCR using a CFX96 Real-Time PCR Detection System (BioRad).

Compound | Inhibition Percentage of ApoE Expression [1] | ApoE (ng/ml) Normalized for Cell Count and Vehicle Treatment [1] | ApoE (ng/ml) Normalized for Cell Count and Vehicle Treatment [2] | ApoE (ng/ml) Normalized for Cell Count and Vehicle Treatment [3] | ApoE (ng/ml) Normalized for Cell Count and Vehicle Treatment [4] | Inhibition Percentage of ApoE Expression ([1]; listed as compound 31) | ApoE (ng/ml) Cell Count Normalized for Cell Count and Vehicle Treatment [5] | Inhibition Percentage of ApoE Expression ([1]; listed as compound 33) | Inhibition Percentage of ApoE Expression ([1]; listed as compound 35) | Inhibition Percentage of ApoE Expression ([1]; listed as compound 36)
CN(C)C(c1ccccc1)(c1ccccc1)c1ccccc1 [Compound 1] | 8% | 0.92 ng/mL |  |  |  |  |  |  |  | 
c1ccc(C(NCC2CCCCC2)(c2ccccc2)c2ccccc2)cc1 [Compound 13, cyclohexylmethyl-trityl-amine] |  | 0.49 ng/mL | 1.16 ratio to vehicle | 1.03 ng/mL | 1.10 |  |  |  |  | 
COc1ccc(C(c2ccccc2)(c2ccccc2)N(C)C)cc1 [Compound 16] | 35% | 0.65 ng/mL |  |  |  |  |  |  |  | 
CCN(CC)C(c1ccccc1)(c1ccccc1)c1ccc(OC)cc1 [Compound 17, Diethyl-[(4-methoxy-phenyl)-diphenyl-methyl]-amine] | 17% | 0.83 ng/mL |  |  |  |  |  |  |  | 
CN(C)C(c1ccccc1)(c1ccccc1)c1ccc2ccccc2c1 [Compound 28] | 35% | 0.65 ng/mL |  |  |  |  |  |  |  | 
c1ccc(C(c2ccccc2)(c2ccc3ccccc3c2)N2CCCC2)cc1 [Compound 31, 1-(naphthalen-2-yl-diphenyl-methyl)-pyrrolidine] | 49% | 0.51 ng/mL | 0.86 ratio to vehicle | 0.64 ng/mL | 0.86 | about 49% |  |  |  | 
c1ccc(C(c2ccccc2)(c2ccc3ccccc3c2)N2CCOCC2)cc1 [Compound 33, 4-(Naphthalen-2-yl-diphenyl-methyl)-morpholine] | 46% | 0.54 ng/mL | 1.22 ratio to vehicle | 0.77 ng/mL | 0.88 |  | 0.59 | about 46% |  | 
CC(C)CNC(c1ccccc1)(c1ccccc1)c1ccc2ccccc2c1 [Compound 35, isobutyl-(naphthalen-2-yl-diphenyl-methyl)-amine] | 50% | 0.50 ng/mL | 1.03 ratio to vehicle | 0.78 ng/mL | 0.87 |  |  |  | about 50% | 
CCC(C)NC(c1ccccc1)(c1ccccc1)c1ccc2ccccc2c1 (stereo not shown) [Compound 36, sec-butyl-(naphthalen-2-yl-diphenyl-methyl)-amine] | 66% | 0.34 ng/mL | 0.93 ratio to vehicle | 0.81 ng/mL | 0.85 |  |  |  |  | about 66%
